Experimental data published in paper PMC6154339, “Synthesis, Characterization, Antimicrobial and Antiproliferative Activity Evaluation of Cu(II), Co(II), Zn(II), Ni(II) and Pt(II) Complexes with Isoniazid-Derived Compound” (Molecules : A Journal of Synthetic Chemistry and Natural …, 2017).
Values after ≈ are worked out from the molar mass of the structure shown. Like-named read-outs stand apart in the source and are kept apart here.

Experiments:
[1] = Qualitative solubility in organic solvents; format: physicochemical
[2] = system: Staphylococcus aureus, ATCC 25923; assay: Antibacterial activity, serial dilutions in liquid broth (MIC/MBC); format: cell-based; details: S. aureus (G +)
Excerpt: (§1) All synthesized complexes and the ligand were screened for their in vitro antibacterial activity against Gram-positive bacteria (Staphylococcus aureus), Gram-negative bacteria (Escherichia coli, Klebsiella pneumoniae) and antifungal activity (Candida albicans) strains using the paper disc diffusion technique (for the qualitative determination) and the serial dilutions in liquid broth method (for determination of MIC). Furacillinum and nystatine were used as standard drugs.
(§2) The antibacterial activity of complexes and also of their prototype furacilin has been determined under liquid nutritive environment (2% of peptonate bullion (pH 7.0)) using the successive dilutions method. Escherichia coli, Klebsiella pneumoniae, and Staphylococcus aureus stems were used as reference culture for the in vitro experiment. The dissolution of studied substances in dimethylformamide, microorganism cultivation, suspension obtaining, determination of minimal inhibition concentration (MIC) and minimal bactericide concentration (MBC) have been carried out according to the method previously reported.

[3] = system: Klebsiella pneumoniae, ATCC 31,488; assay: as above; format: cell-based; details: K. pneumoniae (G −)
Excerpt: as §1, §2

[4] = system: Escherichia coli, ATCC 25922; assay: as above; format: cell-based; details: E. coli (G −)
Excerpt: as §1, §2

[5] = Solubility in compendial aqueous media; format: physicochemical; details: 37 °C, mean ± standard deviation, n = 3; for solubility in compendial media: 30 min; for solubility at 30 min: kinetic from dmso stock
Experimental: Solubility assessment was conducted in compendial aqueous solutions prepared according to United States Pharmacopoeia USP39/NF34): hydrochloric acid 0.1 N pH 1.2, acetate buffer pH 4.5 and phosphate buffer 6.8. These buffer systems are routinely used for screening of drug dissolution testing and they simulate the pH values of proximal gastrointestinal regions. The standard samples were prepared by diluting the stock solution of 80 µg/mL in dimethyl sulfoxide (with 0.2% pyridine, v/v) with corresponding media. The reagents were of analytical grade and used as received.
The assay was performed using a SpectraMax Plus 84 Plate reader reader (Sunnyvale, CA, USA), Molecular Devices LLC (US), equiped with SoftMax software version 6.4.2 (Sunnyvale, CA, USA). Separate plates were loaded with standard solutions in nine concentrations (0.2 to 80 µg/mL). For evaluation of the aqueous solubility, the samples were prepared in triplicate by adding 10 µL of the stock solution to the wells loaded with 190 µL of each buffer, using MultiScreen HTS plates (PCF, code MSSLBPC, Merck Millipore, Darmstadt, Germany). After 30 minutes of incubation at 37 ± 0.5 °C under agitation (250 rpm, IKA KS 4000 ic control, IKA, Staufen, Germany), the plates were filtrated under vacuum using a Vac-Man 96 Vacuum manifold (Promega Corporation, Madison, WI, USA). The solutions were collected in V-bottom polypropylene 96-well microplates (Greiner Bio-One, Kremsmünster, Austria). Volumes of 100 µL were transferred to UV-Star 96-well microplate with flat bottom (Chimney well, Grained Bio-One) and diluted by addition of 100 µL of the corresponding medium. The absorbance corresponding to each well was determined at fixed wavelengths: 280, 300, 320, 340, 360 and 800 nm. The reduced value of absorbance, calculated by the sum of the values recorded at the six wavelengths, were used for the calibration curve and subsequent determination of concentration in each solubility sample.

[6] = system: A375 human melanoma cell line; assay: Alamar blue cell viability assay; format: cell-based; details: relative to untreated control; for Viability %: 48 h treatment, 10 µM
Experimental: (§3) Compounds HL, 1, 5, 6 and 8 were dissolved in dimethyl sulfoxide (DMSO; Sigma-Aldrich, Ayrshire, UK) and stored at 2–8 °C. Compounds 2, 3, 4 and 7 were dissolved in pyridine (Fluka, Munich, Germany). A stock solution of 10 mM in the proper solvents was prepared; as for the final concentration (10 µM), successive dilution of the stock solution with culture medium was made.
(§4) The breast cancer cell lines were cultured as follow: MCF-7 human breast cancer cell line (ATCC, Rockville, MD, USA) was cultured in EMEM (Sigma Aldrich, Munich, Germany) supplemented with 10% FCS (fetal bovine serum, PromoCell, Heidelberg, Germany), 1% penicillin-streptomycin (Pen/Strep, 10,000 IU/mL; PromoCell, Heidelberg, Germany), 1% nonessential amino acids and 1% glutamine (PromoCell, Heidelberg, Germany). SKBR-3 human breast cancer cell line was cultured in McCoy’s 5a Medium Modified (Sigma Aldrich, Munich, Germany) supplemented with 10% FCS (fetal bovine serum, PromoCell, Heidelberg, Germany), 1% penicillin-streptomycin (Pen/Strep, 10,000 IU/mL; PromoCell, Heidelberg, Germany). A375 human melanoma cell line was cultured in DMEM containing 15% FCS (fetal bovine serum, PromoCell, Heidelberg, Germany) and 1% penicillin-streptomycin (Pen/Strep, 10,000 IU/mL; PromoCell, Heidelberg, Germany). Cells were maintained at an atmosphere of 5% CO2 at 37 °C. NCI-H1573 lung adenocarcinoma cell line was cultured in RPMI-1640 Medium (ATCC, Rockville, MD, USA) supplemented with 10% FCS (fetal bovine serum, PromoCell, Heidelberg, Germany), 1% penicillin-streptomycin (Pen/Strep, 10,000 IU/mL; PromoCell, Heidelberg, Germany).
(§5) All tested cell lines were seeded onto a 96-well microplate ([…]) and left overnight to attach to the bottom of the well. After 24 h, the amount of 150 μL of the tested substances dissolved into the culture medium was added and cells were incubated for 48 h. After the incubation period, a volume of 15 μL of the Alamar blue (BioSource, Camarillo, CA, USA) solution was added. After another 10 h of incubation at 37 °C, the samples were spectrophotometrically analyzed using a microplate reader. The wave lengths used were 570 nm and 600 nm, respectively. Wells with untreated cells were used as controls. The highest concentration of DMSO and pyridine (0.1%) used to prepare stock solutions was also tested, in order to identify the solvent activity. All measurements were performed in triplicate and data were presented as mean ± standard deviation.

[7] = system: MCF-7 human breast cancer cell line; assay: Alamar blue cell viability assay; format: cell-based; details: 48 h treatment, relative to untreated control; for Viability %: 10 µM
Experimental: as §3, §4, §5

[8] = system: SKBR-3 human breast cancer cell line; assay: Alamar blue cell viability assay; format: cell-based; details: relative to untreated control; for Viability %: 48 h treatment, 10 µM
Experimental: as §3, §4, §5

[9] = system: NCI-H1573 lung adenocarcinoma cell line; assay: Alamar blue cell viability assay; format: cell-based; details: 48 h treatment, relative to untreated control; for Viability %: 10 µM
Experimental: as §3, §4, §5

Candida albicans = assay: Antifungal (antimycotic) activity, liquid Sabouraud medium (MIC/MBC); format: cell-based; details: C. albicans
Excerpt: as §1
Antimycotic properties of the complexes were investigated in vitro on laboratory stem Candida albicans. The activity has been determined in a liquid Sabouraud nutritive environment (pH 6.8). The inoculates were prepared from fungi stems which were harvested over 3–7 days. Their concentration in suspension is (2–4) × 10^6 colonies form unities in milliliter. Sowings for levures and micelles were incubated at 37 °C during 7 and 14 days, respectively.

in vivo = details: Daphnia magna
[10] = Hydrochloric Acid 0.1 N (pH = 1.2)

Compound	solubility in organic solvents (qualitative) [1]	LC50 (Daphnia magna; incubation period 24 h) [µM]	LC50 (Daphnia magna; incubation period 48 h) [µM]	MBC [2] [µg/mL]	MIC [2] [µg/mL]	MBC [3] [µg/mL]	MIC [3] [µg/mL]	MBC [4] [µg/mL]	MIC [4] [µg/mL]	solubility in compendial media ([5]; Acetate Buffer (pH = 4.5)) [µg/mL]	solubility in compendial media [5, 10] [µg/mL]	solubility in compendial media ([5]; Phosphate Buffer (pH = 6.8)) [µg/mL]	Viability % [6] [%]	Viability % [7] [%]	Viability % [8] [%]	Viability % [9] [%]	MBC (Candida albicans) [µg/mL]	MIC (Candida albicans) [µg/mL]	also measured
COc1cccc(C=NNC(=O)c2ccncc2)c1[O-].COc1cccc(C=NNC(=O)c2ccncc2)c1[O-].[Co+2] [complex 5, [Co(L)2]]	soluble in pyridine, DMF and DMSO, and is partially soluble in ethanol, methanol, acetonitrile, acetone	278	2.38	0.7	0.7	500	500	500	250	1.62 ± 0.72	<0.2	<0.2	88.96	55.61	76.68	89.79	250	125	–
COc1cccc(C=NNC(=O)c2ccncc2)c1[O-].O.O=[N+]([O-])[O-].[Cu+2] [complex 3, [Cu(L)(NO3)]·H2O]	soluble in pyridine and is partially soluble in ethanol, methanol, acetonitrile, acetone, DMF and DMSO	317	5.61	0.15	0.07	500	500	500	500	1.69 ± 0.18	0.92 ± 0.11	<0.2	1.59	2.44	62.65	12.14	3	1.5	–
COc1cccc(/C=N/NC(=O)c2ccncc2)c1O [HL, N-isonicotinoyl-N′-(3-metoxy-2 hydroxybenzaldehyde)-hydrazone]	–	–	–	–	–	–	–	–	–	–	–	–	–	–	–	–	–	–	solubility at 30 min ([5]; aqueous buffer, Acetate Buffer (pH = 4.5)): 3.49 ± 0.41 µg/mL (≈ 12.9 µM); solubility at 30 min ([5]; aqueous buffer, Phosphate Buffer (pH = 6.8)): 0.25 ± 0.02 µg/mL (≈ 0.922 µM); solubility at 30 min ([5]; simulated gastric fluid, Hydrochloric Acid 0.1 N (pH = 1.2)): 2.02 ± 0.02 µg/mL (≈ 7.45 µM); LC50 (in vivo; LC50, incubation period 24 h): 53.1 µM; LC50 (in vivo; LC50, incubation period 48 h): 52.6 µM; viability at 10 µM ([6]; Homo sapiens, A-375, 48 h treatment): 82.4%; viability at 10 µM ([7]; Homo sapiens, MCF7, 48 h): 21.5%; viability at 10 µM ([8]; Homo sapiens, SK-BR-3, 48 h treatment): 76.3%; viability at 10 µM ([9]; Homo sapiens, NCI-H1573, 48 h): 29.2%
CC(=O)[O-].COc1cccc(C=NNC(=O)c2ccncc2)c1[O-].[Cu+2] [complex 2, [Cu(L)(CH3COO)]]	soluble in pyridine and is partially soluble in ethanol, methanol, acetonitrile, acetone, DMF and DMSO	69.6	13.1	0.015	0.015	500	500	500	500	1.27 ± 0.06	1.75 ± 0.54	<0.2	0.73	2.10	6.88	7.22	250	125	–
